Reference: US20240140953A1, “INHIBITORS OF MENIN-MLL INTERACTION” (BIOMEA FUSION, INC., priority 2018, published 2024)
pIC50, pKd: −log10 of the molar value. Where two headings read alike, the source gives them in different places. Blank lines part the entries; values can stand above or below the compound they belong to.

What was measured:
Menin-MLL = Menin-MLL (Homo sapiens (Human), UniProt O00255); assay: Menin-MLL in vitro inhibitory activity (Example 101a, Table 2); type: cell-based
MV-4-11 = assay: Long term proliferation assay (Table 3A), MV-4-11; type: cell-based; conditions: Homo sapiens, MV4-11
Description: (§1) Example 5b: IC50 determination of compounds of invention in various cell lines (Long Term Proliferation Assay)
(§2) The following 5 cell lines are used or can be used for the long term proliferation assay.
(§3) Compounds of invention are tested in the 5 suspension lines by 14-day long-term proliferation assay.
(§4) The compound is tested in 10-pt dose titration (client will determine the starting concentration and the dilution scheme) and the final DMSO concentration is kept at 0.2%.
(§5) Vehicle and media control are also included. All treatments are done in triplicate.
(§6) 3 plates are used for each cell line and 15 plates are used for the 5 cell lines.
(§7) • 1) On Day 0, in a flat bottom 96-well plate, add 100 μL of cells per well at the densities optimized. • 2) Prepare compounds in DMSO at 500× final concentration. Dilute the compounds with DMSO at the dilution. • 3) Dilute the compounds in media at 3×final concentration. Add 50 μL of compound or DMSO at 3× final concentration to each well. Final volume in each well is 150 μL, and final concentration of DMSO is 0.2%. Also include 3 untreated control wells, by adding 50 μL of media alone. 4) Incubate plates for 96 hours. • 5) Count the cells using the Acumen, with capabilities for 96-well plates. Pipette cells up and down to mix in each well, and add desired volume of cells to a new flat bottom poly-D-lysine 96-well plate. Add Calcein AM at 1 μM final concentration. Let cells sit at RT for 10 mins followed by a quick spin to get cells settled on the bottom of the wells. Incubate the plate for additional 40 mins in the incubator. Take out the plate and read by Acumen. Calculate the cell numbers taken into account the dilution factors. • 6) Split the master plate. To do this take the total viable cell count calculated using step 5). Take the average of the replicates for each dose in order to be used in splitting the cells. • 7) Use a 96 well V-bottom plate to spin down the cells to remove old media and compound to split the cells. Based on the split ratio place the proper amount of media and cells into the V-bottom plate, and spin the plate at 1100 rpm for 5 minutes. • 8) Following the spin remove the media, careful not to disturb the cellpellet. • 9) Re-suspend pellet in 100 μL fresh media, and add to a new 96-well flat bottom plate. • 10) Add fresh compound, in the same manner as Step 3). • 11) Incubate plates for 72 hours. Repeat steps 5)-10) on Day 7. • 12) Incubate plates for 96 hours. Repeat Step 5)-10) on Day 11. • 13) Incubate 72 hours and repeat step 5) to take a final count. • 14) Data Analysis
(§8) To calculate growth for days 4, 7, 11, and 14: • Calculate the split factor for day 4 to 7, day 7 to 11, and day 11-14.

MOLM-13 [1] = assay: Long term proliferation assay (Table 3A), MOLM-13; type: cell-based; conditions: Homo sapiens
Description: as §1, §2, §3, §4, §5, §6, §7, §8

menin = menin (Homo sapiens (Human), UniProt O00255); assay: Kd (Table 3A); type: binding
Chain of menin (O00255 whole entry, species assumed): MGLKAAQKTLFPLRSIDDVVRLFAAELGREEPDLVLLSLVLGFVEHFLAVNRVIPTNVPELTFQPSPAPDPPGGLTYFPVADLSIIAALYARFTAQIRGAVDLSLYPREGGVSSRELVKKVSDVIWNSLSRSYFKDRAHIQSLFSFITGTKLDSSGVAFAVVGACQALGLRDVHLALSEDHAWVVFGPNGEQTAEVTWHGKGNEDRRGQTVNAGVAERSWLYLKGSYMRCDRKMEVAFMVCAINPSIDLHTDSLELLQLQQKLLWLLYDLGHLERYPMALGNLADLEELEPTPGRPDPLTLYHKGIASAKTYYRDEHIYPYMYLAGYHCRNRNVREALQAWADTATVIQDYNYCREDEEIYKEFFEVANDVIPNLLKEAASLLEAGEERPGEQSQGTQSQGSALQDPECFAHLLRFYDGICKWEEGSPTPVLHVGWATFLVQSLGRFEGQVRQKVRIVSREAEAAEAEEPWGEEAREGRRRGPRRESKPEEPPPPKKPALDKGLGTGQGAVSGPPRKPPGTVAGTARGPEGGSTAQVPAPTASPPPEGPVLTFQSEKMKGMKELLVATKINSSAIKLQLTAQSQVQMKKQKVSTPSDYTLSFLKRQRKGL

KG-1 [2] = assay: Long term proliferation, Cell Titer-Glo (Table 3B), KG-1; type: cell-based; conditions: Homo sapiens, KG-1, Cell Titer-Glo
MOLM-13 [3] = assay: Long term proliferation, Cell Titer-Glo (Table 3B), MOLM-13; type: cell-based; conditions: Homo sapiens, MOLM-13, Cell Titer-Glo
OCI-AML-3 [4] = assay: Long term proliferation, Cell Titer-Glo (Table 3B), OCI-AML-3; type: cell-based; conditions: Homo sapiens, OCI-AML-3, Cell Titer-Glo
MV4-11 [5] = assay: Long term proliferation, Cell Titer-Glo (Table 3B), MV4-11; type: cell-based; conditions: Homo sapiens, MV4-11, Cell Titer-Glo
KG-1 [6] = assay: Long term proliferation, InCell (Table 3C), KG-1; type: cell-based; conditions: Homo sapiens, KG-1, InCell
Description: as §3, §4, §5, §7, §8

MOLM-13 [7] = assay: Long term proliferation, InCell (Table 3C), MOLM-13; type: cell-based; conditions: Homo sapiens, MOLM-13, InCell
Description: as §3, §4, §5, §7, §8

OCI-AML-3 [8] = assay: Long term proliferation, InCell (Table 3C), OCI-AML-3; type: cell-based; conditions: Homo sapiens, OCI-AML-3, InCell
Description: as §3, §4, §5, §7, §8

MV4-11 [9] = assay: Long term proliferation, InCell (Table 3C), MV4-11; type: cell-based; conditions: Homo sapiens, MV4-11, InCell
Description: as §3, §4, §5, §7, §8

[10] = MV-4-11, Day 4, read-out: MV-4-11 Day 4 IC50
[11] = MV-4-11, Day 11, read-out: MV-4-11 Day 11 IC50
[12] = 96 h, MOLM-13, Day 4, read-out: MOLM-13 Day 4 IC50
[13] = 264 h, MOLM-13, Day 11, read-out: MOLM-13 Day 11 IC50
[14] = 96 h, Day 4, read-out: Day 4 IC50
[15] = 168 h, Day 7, read-out: Day 7 IC50
[16] = 264 h, Day 11, read-out: Day 11 IC50
[17] = 336 h, Day 14, read-out: Day 14 IC50

Chain of Menin-MLL (O00255 whole entry): as the sequence (O00255 whole entry, species assumed) above

pIC50 (Menin-MLL): 6.62
pIC50 (MV-4-11; [10]): 6.76
pIC50 (MV-4-11; [11]): 7.26
pIC50 (MOLM-13 [1]; [12]): 7.13
pIC50 (MOLM-13 [1]; [13]): 7.27
pKd (menin): < 6.00
SMILES: O=C(Nc1ccc(-c2cc3c(N4CCOCC4)ncnc3[nH]2)cc1)Nc1cc(-c2cccnc2)no1 [Compound 2, 1-(4-(4-morpholino-7H-pyrrolo[2,3-d]pyrimidin-6-yl)phenyl)-3-(3-(pyridin-3-yl)isoxazol-5-yl)urea]

pIC50 (MV-4-11; [10]): 6.45
pIC50 (MV-4-11; [11]): 7.15
pIC50 (MOLM-13 [1]; [12]): 6.65
pIC50 (MOLM-13 [1]; [13]): 7.26
pKd (menin): 6.60
pIC50 (MOLM-13 [3]; [14]): 6.49
pIC50 (MOLM-13 [3]; [15]): 6.70
pIC50 (MOLM-13 [3]; [16]): 6.82
pIC50 (MOLM-13 [3]; [17]): 6.60
pIC50 (OCI-AML-3 [4]; [14]): 6.23
pIC50 (OCI-AML-3 [4]; [15]): 6.25
pIC50 (OCI-AML-3 [4]; [16]): 6.26
pIC50 (OCI-AML-3 [4]; [17]): 6.26
pIC50 (MV4-11 [5]; [14]): 6.27
pIC50 (MV4-11 [5]; [15]): 7.00
pIC50 (MV4-11 [5]; [16]): 6.70
pIC50 (MV4-11 [5]; [17]): 7.22
pIC50 (MOLM-13 [7]; [14]): 6.43
pIC50 (MOLM-13 [7]; [16]): 6.72
pIC50 (OCI-AML-3 [8]; [14]): 6.31
pIC50 (OCI-AML-3 [8]; [16]): 6.27
pIC50 (MV4-11 [9]; [14]): 6.46
pIC50 (MV4-11 [9]; [16]): 6.55
SMILES: O=C(Nc1ccc(-c2cc3c(N4CCOCC4)ncnc3[nH]2)cc1)Nc1cc(-c2ccncc2)no1 [Compound 8, 1-{4-[4-(morpholin-4-yl)-7H-pyrrolo[2,3-d]pyrimidin-6-yl]phenyl}-3-[3-(pyridin-4-yl)-1,2-oxazol-5-yl]urea]
pIC50 (KG-1 [2]; [14]): 5.31
pIC50 (KG-1 [2]; [15]): 5.53
pIC50 (KG-1 [2]; [16]): 5.67
pIC50 (KG-1 [2]; [17]): 6.17
pIC50 (KG-1 [6]; [14]): 5.49
pIC50 (KG-1 [6]; [16]): 5.68
